Reference: patent publication US7585523B2, “Composition and method to augment and sustain neurotransmitter production” (Targeted Medical Pharma, priority 2002, dated 2009)

Key:
heart rate [1] = experiment: Continuous heart rate monitoring in 6 individuals, sustained effect; assay type: in vivo, human; details: baseline 0.0
Protocol: In 6 individuals, heart rate experiments were performed to show the sustained effect of the combination of the five elements outlined in this invention. […] They sat quietly for […] to establish a baseline. They then on subsequent days ingested combination of the 5 elements described in this invention. The results are depicted in table 2 and FIG. 5. Where C is caffeine 150 mg, T is tyrosine 50 mg, CH is choline 200 mg, and GB is ginkgo biloba 120 mg.

heart rate [2] = experiment: Continuous heart rate recording, one individual, components on successive days; assay type: in vivo, human; details: baseline as reference, time point not given (5, 10, 15, 30 minutes recorded), caffeine 150 mg, tyrosine 50 mg, histadine 100 mg, Ginkgo Biloba 120 mg, choline 120 mg
Protocol: To test the components of example 14, a series of experiments were performed using a continuous heart rate recorder. In an individual on successive days, heart rate was recoded as RR intervals in msec. The individual sat quietly for 30 minutes as baseline. Then on day 1 the combination of caffeine, 150 mg, with tyrosine, 50 mg, histadine, 100 mg, Ginkgo Biloba, 120 mg, and choline 120 mg was given. […] A percent change was calculated with the baseline as reference. On Day 2 caffeine alone was ingested using the same protocol. […] On day 5, ginkgo biloba was ingested.

[3] = test system: vasodilation of the skin (skin temperature); experiment: Skin temperature probe test of skin vasodilation; assay type: in vivo, human; details: single ingredient given alone
Text: A person ingested the preparation designed to increase nitric oxide and acetylcholine in order to induce vasodilation (example 3). The preparation included choline, arginine, hawthorn berry, cocoa, dextrose, and cinnamon. A temperature probe designed to assess skin temperature measured vasodilation of the skin. The baseline skin temperature was 99 degrees Fahrenheit. Within fifteen minutes after ingestion of the capsules, the skin temperature increased to 101.3 degrees Fahrenheit and remained elevated for three hours. The next day arginine alone was given with no effect on skin temperature. The following day, choline alone was given with no effect on skin temperature. The preparation was given for two weeks when skin temperature was again measured. The skin temperature increased by two degrees and remained elevated for 60 minutes (FIG. 3).

[4] = test system: appetite; heart rate and heart rate variability; experiment: Shell's earlier studies of attenuation of precursor formulations; assay type: in vivo; details: Shell's studies dating to 1987

Row | Compound | percent change in heart rate (heart rate [2]) [%] | effect on skin temperature [3] | further results
1 | Cn1c(=O)c2c(ncn2C)n(C)c1=O [Caffeine] | 3 | – | heart rate, 5 min (heart rate [1]; 5 min after ingestion): 3.0; heart rate, 15 min (heart rate [1]; 15 min after ingestion): 1.3; heart rate, 30 min (heart rate [1]; 30 min after ingestion): 0.0
2 | C[N+](C)(C)CCO [Choline] | −4 | no effect | –
3 | N[C@@H](Cc1c[nH]cn1)C(=O)O [Histadine] | 0.2 | – | –
4 | N[C@@H](Cc1ccc(O)cc1)C(=O)O [Tyrosine] | 1 | – | time until appetite suppression is lost [4]: approximately 7 days
5 | N=C(N)NCCC[C@H](N)C(=O)O [arginine] | – | no effect | –
